Experimental data taken from PMC11943675, “Studies of Piper auritum Kuntz’s Mutagenic and Antimutagenic Properties Using the Ames Test” (Metabolites, 2025).
Values joined by “and” are separate entries in the source; they are usually repeats but may differ in a detail not shown here. Equal entries are not always repeated. Where two headings read alike, the source gives them in different places.

Key:
S. typhimurium TA100 = test: Ames test (Salmonella/microsome mutagenicity assay), strain TA100; format: cell-based, Salmonella typhimurium
Method: (§1) The study was carried out according to the indications of Maron and Ames, as well as with the recommendations expressed by the OCDE with respect to this assay. The Salmonella typhimurium strains used were TA98, TA100, TA102, TA1535, and TA1537.
(§2) In this case, the concentrations used were 10, 50, 100, 500, and 1000 µg/plate. Both studies were performed without and with the inclusion of the S9 fraction. In the last case, the S9 fraction was mixed with 5 mM glucose-6 phosphate, 4 mM NADPH, 8 mM MgCl2, and phosphate buffer at pH 7.4. The reaction mixture with or without S9 was placed in Petri dishes containing minimum agar plus glucose and Vogel–Bonner salts and left at 37 °C for 48 h. Finally, the number of revertant colonies (His^+) in each treatment was counted. Importantly, we used different mutagens as positive controls depending on the strain.
(§3) The toxicity of the tested agents was assessed by observing background bacterial growth on minimal agar plates due to traces of histidine in the medium.

S. typhimurium TA98 [1] = test: Ames test (Salmonella/microsome mutagenicity assay), strain TA98; format: cell-based, Salmonella typhimurium
Method: as §1, §2, §3

S. typhimurium TA1535 = format: cell-based, Salmonella typhimurium; settings: positive mutagen
Method: as §1, §2, §3

S. typhimurium TA102 = test: Ames test (Salmonella/microsome mutagenicity assay), strain TA102; format: cell-based, Salmonella typhimurium
Method: as §1, §2, §3

S. typhimurium TA1537 = test: Ames test (Salmonella/microsome mutagenicity assay), strain TA1537; format: cell-based, Salmonella typhimurium
Method: as §1, §2, §3

[2] = tested on: Salmonella typhimurium strains TA98, TA100, TA102, TA1535, and TA1537; test: Ames test, overall verdict over the five strains; format: cell-based
Method: as §1, §2, §3

mouse bone marrow = settings: cited from earlier work
[3] = tested on: strain TA98 of S. typhimurium; settings: cited from earlier work
human CYP1A1 [4] = biological target: T1, human CYP1A1 (Homo sapiens, UniProt P04798); test: biochemical
T1 sequence (P04798 1-512): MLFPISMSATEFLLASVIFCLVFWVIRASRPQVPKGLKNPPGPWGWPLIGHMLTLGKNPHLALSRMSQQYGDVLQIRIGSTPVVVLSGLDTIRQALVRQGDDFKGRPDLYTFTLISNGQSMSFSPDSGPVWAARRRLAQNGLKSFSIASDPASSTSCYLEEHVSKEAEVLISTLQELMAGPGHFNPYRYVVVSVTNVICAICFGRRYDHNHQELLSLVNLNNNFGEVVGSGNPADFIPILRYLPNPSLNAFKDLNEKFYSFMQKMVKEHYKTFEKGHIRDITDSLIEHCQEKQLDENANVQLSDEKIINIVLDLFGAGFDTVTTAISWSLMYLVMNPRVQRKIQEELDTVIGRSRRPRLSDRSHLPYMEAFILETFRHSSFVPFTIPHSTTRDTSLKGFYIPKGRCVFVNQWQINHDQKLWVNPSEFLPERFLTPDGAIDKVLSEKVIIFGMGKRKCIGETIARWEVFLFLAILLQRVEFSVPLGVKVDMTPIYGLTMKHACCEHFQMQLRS
Method: (§4) The protein content was estimated via the Bradford assay.
(§5) To determine the type of inhibition, an incubation volume of 200 μL containing human CYP1A1 bacterial membranes (80 μg) and 0.5 mM NADPH in buffer pH 7.6 (50 mM Tris–HCl and 25 mM MgCl2) was used.

Salmonella typhimurium = settings: cited from earlier work
human CYP1A1 [5] = biological target: T1, human CYP1A1; settings: nonlinear regression and Lineweaver–Burk plots
Method: as §4, §5

rat hepatocytes = settings: cited from earlier work
S. typhimurium TA98 [6] = settings: strain TA98; cited from earlier work

With O=[N+]([O-])c1ccc2c(c1)Cc1ccccc1-2 [2-nitrofluorene, reference compound] the “His^+ Revertants” value (S. typhimurium TA100; positive mutagen, TA100 (−S9), 5 µg) was 1909 ± 428 ^1 and the “His^+ Revertants” value (S. typhimurium TA98 [1]; positive mutagen, TA98 (−S9), 5 µg) was 2419 ± 169 ^1 and 2070 ± 44 ^1.
In the case of Nc1ccc2cc3ccccc3cc2c1 [aminoanthracene, 2-aminoanthracene, reference compound], the “His^+ Revertants” value (S. typhimurium TA1535; TA1535 (+S9), 2 µg) is reported as 371 ± 20 ^4, the “His^+ Revertants” value (S. typhimurium TA102; positive mutagen, TA102 (+S9), 5 µg) is reported as 2080 ± 27 ^7 and the “His^+ Revertants” value (S. typhimurium TA1537; positive mutagen, TA1537 (+S9), 2 µg) is reported as 120 ± 12 ^4.
With CC1=NN(c2ccc([N+](=O)[O-])cc2)C(=O)C1[N+](=O)[O-] (stereo not drawn) [picrolonic acid, reference compound] the “His^+ Revertants” value (S. typhimurium TA1537; positive mutagen, TA1537 (−S9), 100 µg) was 63 ± 2 ^5.
For C=CCc1ccc2c(c1)OCO2 [safrole, 5-(2-propenyl)-1,3-benzodioxone], the “His^+ Revertants” value (S. typhimurium TA100; TA100 (+S9), 10 μg/plate) was 97 ± 18, the “His^+ Revertants” value (S. typhimurium TA100; TA100 (+S9), 50 μg/plate) was 108 ± 18 and the “His^+ Revertants” value (S. typhimurium TA100; TA100 (+S9), 100 μg/plate) was 105 ± 9. The “His^+ Revertants” value (S. typhimurium TA100; TA100 (+S9), 500 μg/plate) was 108 ± 9, the “His^+ Revertants” value (S. typhimurium TA100; TA100 (+S9), 1000 μg/plate) was 102 ± 9 and the “His^+ Revertants” value (S. typhimurium TA100; TA100 (−S9), 10 μg/plate) was 110 ± 16. For the same compound, the “His^+ Revertants” value (S. typhimurium TA100; TA100 (−S9), 50 μg/plate) was 120 ± 17, the “His^+ Revertants” value (S. typhimurium TA100; TA100 (−S9), 100 μg/plate) was 107 ± 10 and the “His^+ Revertants” value (S. typhimurium TA100; TA100 (−S9), 500 μg/plate) was 100 ± 17. The “His^+ Revertants” value (S. typhimurium TA100; TA100 (−S9), 1000 μg/plate) was 112 ± 6, the “toxicity (background bacterial growth)” value ([2]; tested concentrations) was “absence of toxicity” and the mutagenic potential ([2]; with and without S9) was “absence of a mutagenic effect”. The “His^+ Revertants” value (S. typhimurium TA102; TA102 (+S9), 10 μg/plate) was 573 ± 6, the “His^+ Revertants” value (S. typhimurium TA102; TA102 (+S9), 50 μg/plate) was 558 ± 14 and the “His^+ Revertants” value (S. typhimurium TA102; TA102 (+S9), 100 μg/plate) was 520 ± 10. The “His^+ Revertants” value (S. typhimurium TA102; TA102 (+S9), 500 μg/plate) was 477 ± 17, the “His^+ Revertants” value (S. typhimurium TA102; TA102 (+S9), 1000 μg/plate) was 504 ± 12 and the “His^+ Revertants” value (S. typhimurium TA102; TA102 (−S9), 10 μg/plate) was 502 ± 4. For the same compound, the “His^+ Revertants” value (S. typhimurium TA102; TA102 (−S9), 50 μg/plate) was 489 ± 19, the “His^+ Revertants” value (S. typhimurium TA102; TA102 (−S9), 100 μg/plate) was 484 ± 13 and the “His^+ Revertants” value (S. typhimurium TA102; TA102 (−S9), 500 μg/plate) was 451 ± 18. For the same compound, the “His^+ Revertants” value (S. typhimurium TA102; TA102 (−S9), 1000 μg/plate) was 512 ± 40, the “mutagenicity, mouse bone marrow micronuclei assay” value (mouse bone marrow) was “negative” and the “antimutagenic potential against heterocyclic aromatic amines” value [3] was “strong antimutagenic potential”. For the same compound, the Ki (human CYP1A1 [4]) was 380 nM, the “His^+ Revertants” value (S. typhimurium TA1537; TA1537 (+S9), 10 μg/plate) was 12 ± 3 and the “His^+ Revertants” value (S. typhimurium TA1537; TA1537 (+S9), 50 μg/plate) was 10 ± 3. The “His^+ Revertants” value (S. typhimurium TA1537; TA1537 (+S9), 100 μg/plate) was 10 ± 1, the “His^+ Revertants” value (S. typhimurium TA1537; TA1537 (+S9), 500 μg/plate) was 11 ± 4 and the “His^+ Revertants” value (S. typhimurium TA1537; TA1537 (+S9), 1000 μg/plate) was 9 ± 3. For the same compound, the “His^+ Revertants” value (S. typhimurium TA1537; TA1537 (−S9), 10 μg/plate) was 10 ± 3, the “His^+ Revertants” value (S. typhimurium TA1537; TA1537 (−S9), 50 μg/plate) was 14 ± 4 and the “His^+ Revertants” value (S. typhimurium TA1537; TA1537 (−S9), 100 μg/plate) was 10 ± 1. The “His^+ Revertants” value (S. typhimurium TA1537; TA1537 (−S9), 500 μg/plate) was 12 ± 3, the “His^+ Revertants” value (S. typhimurium TA1537; TA1537 (−S9), 1000 μg/plate) was 11 ± 4 and the “mutagenicity, Ames test” value (Salmonella typhimurium) was “negative”. The type of inhibition (human CYP1A1 [5]) was “competitive inhibition”, the “DNA adducts and chromosomal aberrations” value (rat hepatocytes) was “induction of DNA adducts and chromosomal aberrations” and the gene mutations (rat hepatocytes) was “no gene mutations”. The “His^+ Revertants” value (S. typhimurium TA98 [1]; TA98 (+S9), 10 μg/plate) was 20 ± 2, the “His^+ Revertants” value (S. typhimurium TA98 [1]; TA98 (+S9), 50 μg/plate) was 34 ± 8 and the “His^+ Revertants” value (S. typhimurium TA98 [1]; TA98 (+S9), 100 μg/plate) was 38 ± 9. For the same compound, the “His^+ Revertants” value (S. typhimurium TA98 [1]; TA98 (+S9), 500 μg/plate) was 26 ± 9, the “His^+ Revertants” value (S. typhimurium TA98 [1]; TA98 (+S9), 1000 μg/plate) was 36 ± 7 and the “His^+ Revertants” value (S. typhimurium TA98 [1]; TA98 (−S9), 10 μg/plate) was 19 ± 3. The “His^+ Revertants” value (S. typhimurium TA98 [1]; TA98 (−S9), 50 μg/plate) was 22 ± 7, the “His^+ Revertants” value (S. typhimurium TA98 [1]; TA98 (−S9), 100 μg/plate) was 27 ± 4 and the “His^+ Revertants” value (S. typhimurium TA98 [1]; TA98 (−S9), 500 μg/plate) was 18 ± 3. For the same compound, the “His^+ Revertants” value (S. typhimurium TA98 [1]; TA98 (−S9), 1000 μg/plate) was 22 ± 9 and the mutagenicity (S. typhimurium TA98 [6]) was “no mutagenicity”.
In the case of [N-]=[N+]=[N-].[Na+] [sodium azide], the “His^+ Revertants” value (S. typhimurium TA1535; TA1535 (−S9), 1 µg) is reported as 481 ± 28 ^3.
